Reference: patent US6498159B1, “Phthalazine derivatives and remedies for erectile dysfunction” (Eisai Co., Ltd., priority 1998, dated 2002)

Assays:
[1] = molecular target: PDE5 (Sus scrofa, UniProt A0A287B475); assay: Inhibitory action on the enzyme cGMP-PDE obtained from porcine platelets; assay type: biochemical; details: 1 μM cGMP substrate, 1 mM EGTA, read-out: PDE 5 IC50
Method: 1) Inhibitory Action on the Enzyme cGMP-PDE Obtained from Porcine Platelets
The inhibitory activity of a test compound on the enzyme cGMP-PDE prepared from porcine platelets was determined by adding a solution of the test compound dissolved in DMSO to a reaction solution, where 1 μM cGMP was used as the substrate in the presence of 1 mM EGTA in accordance with a method of Tompson et al. The final concentration of DMSO in the reaction solution was 1% or less. Preparation of cGMP-PDE was conducted as follows. Porcine platelets were added to buffer A (20 mM Tris/HCl, 2 mM magnesium acetate, 10 mM 2-mercaptoethanol, 0.1 mM EGTA; pH 7.4), and then sonicated. The resulting suspension was centrifuged at 100,000×g for 60 min, and the resulting supernatant was subjected to a column (DEAE-Toyopearl 650S produced by Tosoh, Tokyo, Japan). After the column was washed with buffer A, the enzyme was eluted with a gradient of from 0.075 to 0.25 M NaCl in buffer A to give a CGMP-PDE fraction. The resulting fraction was dialyzed, concentrated and stored.

[2] = system: penile cavernosum preparation removed from a rabbit; assay: Augmenting action of PDE5 inhibitor on the relaxation by nitroprusside of the penile cavernosum preparation removed from a rabbit; details: for EC50: Oryctolagus cuniculus, compound concentration at which the contraction caused by phenylephrine is relaxed by 50%, regression analysis on relaxation curve, duplicate; for Relaxation ratio (%): after nitroprusside (300 μM), phenylephrine contraction, mean of duplicate
Method: 2) Augmenting Action of the PDE5 Inhibitor on the Relaxing Action of Nitroprusside on a Penile Cavernosum Preparation Removed from a Rabbit
The penis was removed from a NZW white rabbit (about 3 kg) killed by intravenous administration of pentobarbital (50 mg/kg). After removal, the cavernosum was exposed by removal of surrounding tissues such as albuginea to give a preparation (about 10×1.5×1.5 mm). This preparation was suspended on a Magnus tube filled up with 10 ml Krebs-Henseleit's nutritive solution (118.4 mM NaCl, 4.7 mM KCl, 2.5 mM CaCl2, 1.3 mM MgSO4, 1.2 mM KH2PO4, 25.0 mM NaHCO3, 11.0 mM glucose, 0.026 mM EDTA and 0.001 mM indomethacin) at 37° C., and a gas mixture (95% oxygen+5% carbon dioxide) was bubbled thereinto. Then, the isometric tension was recorded under a load of 2 g. To stabilize the contraction, contraction caused by adding a potassium chloride solution (final concentration: 100 mM) and washing were repeated twice, and further, contraction by adding phenylephrine (final concentration: 10 μM) and washing were also conducted.
It was filled up again with 10 ml Krebs-Henseleit's solution, and L-N^G-nitroarginine methyl ester (final concentration: 100 μM) was added to inhibit the formation of endogenous nitrogen monoxide. Contraction was caused by adding phenylephrine (final concentration: 10 μM), and a chemical solution was added thereto at a final concentration of 3, 30 or 300 nM. Dimethyl sulfoxide was used as the medium in this reaction. 15 min after the chemical was added, nitroprusside (final concentration: 300 μM) was added to relax the preparation. Further, papaverine (final concentration: 100 μM) was added to determine the maximum relaxation.
After the experiment, the tension generated upon adding papaverine was used as the base line, and the relaxation of the preparation by adding nitroprusside was recorded on a chart by using a DEGIMATIC CALIPER to determine the degree of relaxation.
Values in the table indicate relaxation ratio (%) after nitroprusside was added to the preparation pretreated with the 3, 30 and 300 nM compound, and the mean in a duplicate experiment was recorded. Further, the EC50 value indicates the compound concentration at which the contraction caused by phenylephrine is relaxed by 50%, and this value was calculated by regression analysis on a relaxation curve in the duplicate experiment.

[3] = preparation pretreated with 3 nM compound
[4] = preparation pretreated with 30 nM compound
[5] = preparation pretreated with 300 nM compound

| IC50 [1] [nM] | EC50 [2] [nM] | Compound | Relaxation ratio (%) [2, 3] [%] | Relaxation ratio (%) [2, 4] [%] | Relaxation ratio (%) [2, 5] [%] |
| --- | --- | --- | --- | --- | --- |
| 0.54 | 2 | COc1ccc(CNc2nnc(N3CCC4(CC3)CC(O)C4)c3ccc(C#N)cc23)cc1Cl.Cl [Example 9, 4-[(3-Chloro-4-methoxybenzyl)amino]-1-(2-hydroxy-7-azaspiro[3.5]non-7-yl)-6-phthalazinecarbonitrile Hydrochloride] | 56.6 | 77.7 | 79.6 |
| 0.25 | 3.5 | COc1ccc(CNc2nnc(N3CCC(C(F)CO)CC3)c3ccc(C#N)cc23)cc1Cl.Cl (stereo not drawn) [Example 36, 4-[(3-Chloro-4-methoxybenzyl)amino]-1-(4-[1-fluoro-2-hydroxyethyl)piperidino]-6-phthalazinecarbonitrile Hydrochloride] | 35.0 | 60.8 | 54.8 |
|  | 29.3 | COc1ccc(CNc2nnc(N3CCC(OCCO)CC3)c3ccc(C#N)cc23)cc1Cl.Cl [Example 37, 4-[(3-Chloro-4-methoxybenzyl)amino]-1-[4-(2-hydroxyethoxy)piperidino]-6-phthalazinecarbonitrile Hydrochloride] | 33.4 | 50.1 | 56.0 |
| 0.23 | 0.7 | COc1ccc(CNc2nnc(N3CCC(O)CC3)c3ccc(C#N)cc23)cc1Br.Cl [Example 77, 4-[(3-Bromo-4-methoxybenzyl)amino]-1-(4-hydroxypiperidino)-6-phthalazinecarbonitrile Hydrochloride] | 58.8 | 71.7 | 80.6 |
| 0.5 | 2.8 | COc1ccc(CNc2nnc(N3CCC(F)(CO)CC3)c3ccc(C#N)cc23)cc1Br.Cl [Example 83, 4-[(3-Bromo-4-methoxybenzyl)amino]-1-[4-fluoro-4-(hydroxymethyl)piperidino]-6-phthalazinecarbonitrile Hydrochloride] | 50.6 | 67.3 | 69.9 |
|  | 3 | COc1ccc(CNc2nnc(N3CCC(O)CC3)c3ccc(C#N)cc23)cc1C.Cl [Example 86, 1-(4-Hydroxypiperidino)-4-[(4-methoxy-3-methylbenzyl)amino]-6-phthalazinecarbonitrile Hydrochloride] | 50.2 | 70.2 | 71.5 |
| 0.89 | 3 | COc1ccc(CNc2nnc(N3CCC(F)(CO)CC3)c3ccc(C#N)cc23)cc1C.Cl [Example 88, 1-[4-Fluoro-4-(hydroxymethyl)piperidino]-4-[(4-methoxy-3-methylbenzyl)amino]-6-phthalazinecarbonitrile Hydrochloride] | 50.0 | 67.5 | 75.0 |
